Patent US20240409585A1, “MACROCYCLIC IMMUNOMODULATORS” (priority 2021, published 2024)
Read-outs that look alike come from different tables or passages of the source. Numbered stars: 1 amine (or outer) side, 2 acyl side, 3 side chain; on linkers, the order of the positions; unused ones are H or OH. Bridge positions count the residues as written; N and C are the ends. Square brackets hold non-standard residues; d marks the D form. Peptide text beside a SMILES is read from it. * marks the point of attachment. ξ: configuration not given here. X21 = CN(C)P(=O)(Oc1ccc(C[C@H](N[*:1])C(=O)[*:2])cc1)N(C)C; Phe(4-COOH) = N[C@@H](Cc1ccc(C(=O)O)cc1)C(=O)O; Bip = N[C@@H](Cc1ccc(-c2ccccc2)cc1)C(=O)O; Phe(3-CN) = N#Cc1cccc(C[C@H](N)C(=O)O)c1; Phe(3-OMe) = COc1cccc(C[C@H](N)C(=O)O)c1; Phe(3-F) = N[C@@H](Cc1cccc(F)c1)C(=O)O; Phe(3-Me) = Cc1cccc(C[C@H](N)C(=O)O)c1; Val(3-OH) = CC(C)(O)[C@H](N)C(=O)O; 3Pal = N[C@@H](Cc1cccnc1)C(=O)O; 2Thi = N[C@@H](Cc1cccs1)C(=O)O; Cha = N[C@@H](CC1CCCCC1)C(=O)O; Cit = NC(=O)NCCC[C@H](N)C(=O)O; Ile(3ξ) = CCC(C)[C@H](N)C(=O)O; NMeL = CN[C@@H](CC(C)C)C(=O)O; dNle = CCCC[C@@H](N)C(=O)O; Pip = O=C(O)[C@@H]1CCCCN1; Carboxymethyl = O=C(O)C*; NMeA = CN[C@@H](C)C(=O)O; Nle = CCCC[C@H](N)C(=O)O; Dab = NCC[C@H](N)C(=O)O; Dap = NC[C@H](N)C(=O)O

Biological target: T1, PE-labeled human PD-L1-Ig binding to Jurkat cell line over-expressing human PD-1 (Jurkat-PD-1) (Homo sapiens, UniProt Q15116)
T1 construct: expressed in transfected cells; host or cells: Jurkat
T1 sequence (Q15116 25-288): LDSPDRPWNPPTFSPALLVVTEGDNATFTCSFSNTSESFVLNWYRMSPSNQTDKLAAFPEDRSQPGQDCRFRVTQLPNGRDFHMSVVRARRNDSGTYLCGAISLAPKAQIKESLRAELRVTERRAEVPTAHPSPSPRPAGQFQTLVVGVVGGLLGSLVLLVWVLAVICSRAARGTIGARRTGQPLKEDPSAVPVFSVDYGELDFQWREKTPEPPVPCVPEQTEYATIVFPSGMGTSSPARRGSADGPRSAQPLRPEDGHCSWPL
Experiment: Jurkat-PD-1 Cell Binding High-Content Screening Assay (CBA): Method 1
Conditions: Jurkat-hPD-1 cells, PE-labeled PD-L1-Ig 20 nM final

[1] = read-out: Jurkat HPDL1 PD1 IC50 (uM) (Method 1)

| Structure (SMILES) | IC50 [1] [µM] | IC50 (Jurkat HPDL1 PD1 IC50 (uM) (Method 1)) [µM] |
| --- | --- | --- |
| CC(C)C[C@@H]1NC(=O)[C@H](CCN)NC(=O)[C@@H](CC(C)C)NC(=O)[C@H](C)N(C)C(=O)[C@H](CCC(N)=O)NC(=O)[C@H](Cc2ccc(-c3ccccc3)cc2)NC(=O)[C@H](C(C)C)NC(=O)[C@H](Cc2c[nH]c3ccccc23)NC(=O)[C@H](CC(=O)O)NC(=O)[C@H](Cc2ccc(O)cc2)NC(=O)[C@H](CC(N)=O)NC(=O)CSC[C@@H](C(=O)N[C@@H](C)C(N)=O)NC(=O)[C@H]([C@@H](C)O)NC(=O)[C@H](C(C)C)NC1=O [Compound 1301] ({CH2CO}-NYDWV[Bip]Q[NMeA][dL][Dab]LVTCA-NH2; thioether N-14) | 0.06 | – |
| COc1cccc(C[C@@H]2NC(=O)[C@H](CC(=O)O)NC(=O)[C@H](Cc3ccc(O)cc3)NC(=O)[C@H](CC(N)=O)NC(=O)CSC[C@@H](C(=O)N[C@@H](C)C(N)=O)NC(=O)[C@H]([C@@H](C)O)NC(=O)[C@H](C(C)C)NC(=O)[C@H](CC(C)C)NC(=O)[C@H](CCCNC(N)=O)NC(=O)[C@@H](CC(C)C)NC(=O)[C@H](C)N(C)C(=O)[C@H](CCCNC(=N)N)NC(=O)[C@H](Cc3ccc(-c4ccccc4)cc3)NC(=O)[C@H](C(C)C)NC2=O)c1 [Compound 1191] ({CH2CO}-NYD[Phe(3-OMe)]V[Bip]R[NMeA][dL][Cit]LVTCA-NH2; thioether N-14) | 0.07 | – |
| Cc1cccc(C[C@@H]2NC(=O)[C@H](CC(=O)O)NC(=O)[C@H](Cc3ccc(OCC(=O)O)cc3)NC(=O)[C@H](CN)NC(=O)CSC[C@@H](C(N)=O)NC(=O)[C@H](CCC(=O)O)NC(=O)[C@H](C(C)C)NC(=O)[C@H](CC3CCCCC3)NC(=O)[C@H](CCN)NC(=O)[C@@H](CC(C)C)NC(=O)[C@@H]3CCCCN3C(=O)[C@H](Cc3ccc(OCC(=O)O)cc3)NC(=O)[C@H](Cc3ccc(-c4ccccc4)cc3)NC(=O)[C@H](Cc3ccc(OCC(=O)O)cc3)NC2=O)c1 [Compound 1894] ({CH2CO}-[Dap]Y(Carboxymethyl)D[Phe(3-Me)]Y(Carboxymethyl)[Bip]Y(Carboxymethyl)[Pip][dL][Dab][Cha]VEC-NH2; thioether N-14) | 0.3 | – |
| CC(C)C[C@@H]1NC(=O)[C@H](CCN)NC(=O)[C@@H](CC(C)C)NC(=O)[C@H](C)N(C)C(=O)[C@H](CCCNC(=N)N)NC(=O)[C@H](Cc2ccc(-c3ccccc3)cc2)NC(=O)[C@H](C(C)C)NC(=O)[C@H](Cc2cccc(C#N)c2)NC(=O)[C@H](CC(=O)O)NC(=O)[C@H](Cc2ccc(C(=O)O)cc2)NC(=O)[C@H](CN)NC(=O)CSC[C@@H](C(=O)N[C@@H](C)C(N)=O)NC(=O)[C@H]([C@@H](C)O)NC(=O)[C@H](C(C)C)NC1=O [Compound 1461] ({CH2CO}-[Dap][Phe(4-COOH)]D[Phe(3-CN)]V[Bip]R[NMeA][dL][Dab]LVTCA-NH2; thioether N-14) | 0.23 | – |
| CCCC[C@@H]1NC(=O)[C@H](CCCNC(=N)N)NC(=O)[C@@H](CC(C)C)NC(=O)[C@H](C)N(C)C(=O)[C@H]([C@@H](C)CC)NC(=O)[C@H](Cc2ccc(-c3ccccc3)cc2)NC(=O)[C@H](C(C)C)NC(=O)[C@H](Cc2c[nH]c3ccccc23)NC(=O)[C@H](CC(=O)O)NC(=O)[C@H](Cc2ccc(O)cc2)NC(=O)[C@H](Cc2ccc(OCC(=O)O)cc2)NC(=O)CSC[C@@H](C(=O)N[C@@H](C)C(N)=O)NC(=O)[C@H]([C@@H](C)O)NC(=O)[C@H](C(C)C)NC1=O [Compound 1497] ({CH2CO}-Y(Carboxymethyl)YDWV[Bip]I[NMeA][dL]R[Nle]VTCA-NH2; thioether N-14) | 0.2 | – |
| CC(C)C[C@@H]1NC(=O)[C@H](CCCNC(=N)N)NC(=O)[C@@H](Cc2ccccc2)NC(=O)[C@H](C)N(C)C(=O)[C@H](CCCNC(=N)N)NC(=O)[C@H](Cc2ccc(-c3ccccc3)cc2)NC(=O)[C@H](C(C)C)NC(=O)[C@H](Cc2c[nH]c3ccccc23)NC(=O)[C@H](CC(=O)O)NC(=O)[C@H](Cc2ccc(O)cc2)NC(=O)[C@H](CC(N)=O)NC(=O)CSC[C@@H](C(=O)N[C@@H](C)C(N)=O)NC(=O)[C@H]([C@@H](C)O)NC(=O)[C@H](C(C)C)NC1=O [Compound 1153] ({CH2CO}-NYDWV[Bip]R[NMeA][dF]RLVTCA-NH2; thioether N-14) | 0.19 | – |
| CC(C)C[C@@H]1NC(=O)[C@H](Cc2c[nH]c3ccccc23)NC(=O)[C@H](CC(=O)O)NC(=O)[C@H](Cc2ccc(OP(=O)(N(C)C)N(C)C)cc2)NC(=O)[C@H](Cc2ccccc2)NC(=O)CSC[C@@H](C(=O)N[C@@H](C)C(N)=O)NC(=O)[C@H](CO)NC(=O)[C@H](C(C)C)NC(=O)[C@H](CC(C)C)NC(=O)[C@H](CC(N)=O)NC(=O)[C@@H](C)NC(=O)[C@H](C)N(C)C(=O)[C@H](C(C)C)NC(=O)[C@H](Cc2ccc(-c3ccccc3)cc2)NC1=O [Compound 1764] ({CH2CO}-F[X21]DWL[Bip]V[NMeA][dA]NLVSCA-NH2; thioether N-14) | – | 0.04 |

Continued, in another order:

| IC50 [1] [µM] | Structure (SMILES) | IC50 (Jurkat HPDL1 PD1 IC50 (uM) (Method 1)) [µM] |
| --- | --- | --- |
| 0.03 | CCCC[C@H]1NC(=O)[C@H](C)N(C)C(=O)[C@H](C(C)C)NC(=O)[C@H](Cc2ccc(-c3ccccc3)cc2)NC(=O)[C@H](CC(C)C)NC(=O)[C@H](Cc2c[nH]c3ccccc23)NC(=O)[C@H](CC(=O)O)NC(=O)[C@H](Cc2ccc(O)cc2)NC(=O)[C@H](Cc2ccccc2)NC(=O)CSC[C@@H](C(=O)N[C@@H](C)C(N)=O)NC(=O)[C@H](CO)NC(=O)[C@H](C(C)C)NC(=O)[C@H](CC(C)C)NC(=O)[C@H](CC(N)=O)NC1=O [Compound 1753] ({CH2CO}-FYDWL[Bip]V[NMeA][dNle]NLVSCA-NH2; thioether N-14) | – |
| 0.02 | CC[C@H](C)[C@@H]1NC(=O)[C@H](Cc2ccc(-c3ccccc3)cc2)NC(=O)[C@H](C(C)C)NC(=O)[C@H](Cc2cccc(C)c2)NC(=O)[C@H](CC(=O)O)NC(=O)[C@H](Cc2ccc(O)cc2)NC(=O)[C@H](CC(N)=O)NC(=O)CSC[C@@H](C(=O)N[C@@H](CCN)C(N)=O)NC(=O)[C@H]([C@@H](C)O)NC(=O)[C@H](C(C)(C)O)NC(=O)[C@H](CC2CCCCC2)NC(=O)[C@H](CCN)NC(=O)[C@@H](CC(C)C)NC(=O)[C@H](C)N(C)C1=O [Compound 1689] ({CH2CO}-NYD[Phe(3-Me)]V[Bip]I[NMeA][dL][Dab][Cha][Val(3-OH)]TC[Dab]-NH2; thioether N-14) | – |
| 0.03 | CC(C)C[C@@H]1NC(=O)[C@H](CCN)NC(=O)[C@@H](CC(C)C)NC(=O)[C@H](CC(C)C)N(C)C(=O)[C@H](C(C)C)NC(=O)[C@H](Cc2ccc(-c3ccccc3)cc2)NC(=O)[C@H](C(C)C)NC(=O)[C@H](Cc2c[nH]c3ccccc23)NC(=O)[C@H](CC(=O)O)NC(=O)[C@H](Cc2ccc(O)cc2)NC(=O)[C@H](CC(N)=O)NC(=O)CSC[C@@H](C(=O)N[C@@H](C)C(N)=O)NC(=O)[C@H]([C@@H](C)O)NC(=O)[C@H](C(C)C)NC1=O [Compound 1371] ({CH2CO}-NYDWV[Bip]V[NMeL][dL][Dab]LVTCA-NH2; thioether N-14) | – |
| 0.02 | Cc1cccc(C[C@@H]2NC(=O)[C@H](CC(=O)O)NC(=O)[C@H](Cc3ccc(O)cc3)NC(=O)[C@H](Cc3ccccc3)NC(=O)CSC[C@@H](C(=O)NCC(N)=O)NC(=O)[C@H](CO)NC(=O)[C@H](C(C)C)NC(=O)[C@H](CC(C)C)NC(=O)[C@H](CC(N)=O)NC(=O)[C@@H](CC(C)C)NC(=O)[C@H](C)N(C)C(=O)[C@H](C(C)C)NC(=O)[C@H](Cc3ccc(-c4ccccc4)cc3)NC(=O)[C@H](CC(C)C)NC2=O)c1 [Compound 1517] ({CH2CO}-FYD[Phe(3-Me)]L[Bip]V[NMeA][dL]NLVSCG-NH2; thioether N-14) | – |
| 0.01 | CC[C@H](C)[C@@H]1NC(=O)[C@H](Cc2ccc(-c3ccccc3)cc2)NC(=O)[C@H](CC(C)C)NC(=O)[C@H](Cc2c[nH]c3ccccc23)NC(=O)[C@H](CC(=O)O)NC(=O)[C@H](Cc2ccc(C(=O)O)cc2)NC(=O)[C@H](Cc2ccc(OCC(=O)O)cc2)NC(=O)CSC[C@@H](C(N)=O)NC(=O)[C@H](CO)NC(=O)[C@H](C(C)C)NC(=O)[C@H](CC2CCCCC2)NC(=O)[C@H](CCN)NC(=O)[C@@H](CC(C)C)NC(=O)[C@H](C)N(C)C1=O [Compound 1635] ({CH2CO}-Y(Carboxymethyl)[Phe(4-COOH)]DWL[Bip]I[NMeA][dL][Dab][Cha]VSC-NH2; thioether N-14) | – |
| 0.04 | CC(C)C[C@@H]1NC(=O)[C@H](CCCNC(=N)N)NC(=O)[C@@H](CC(C)C)NC(=O)[C@H](C)N(C)C(=O)[C@H](CCCNC(=N)N)NC(=O)[C@H](Cc2ccc(-c3ccccc3)cc2)NC(=O)[C@H](C(C)C)NC(=O)[C@H](Cc2c[nH]c3ccccc23)NC(=O)[C@H](CC(=O)O)NC(=O)[C@H](Cc2ccc(OCC(=O)O)cc2)NC(=O)[C@H](Cc2cccnc2)NC(=O)CSC[C@@H](C(=O)N[C@@H](C)C(N)=O)NC(=O)[C@H]([C@@H](C)O)NC(=O)[C@H](C(C)C)NC1=O [Compound 1110] ({CH2CO}-[3Pal]Y(Carboxymethyl)DWV[Bip]R[NMeA][dL]RLVTCA-NH2; thioether N-14) | – |
| 0.04 | CCC(C)[C@@H]1NC(=O)[C@H](Cc2ccc(-c3ccccc3)cc2)NC(=O)[C@H](CC(C)C)NC(=O)[C@H](Cc2c[nH]c3ccccc23)NC(=O)[C@H](CC(=O)O)NC(=O)[C@H](Cc2ccc(C(=O)O)cc2)NC(=O)[C@H](Cc2ccc(OCC(=O)O)cc2)NC(=O)CSC[C@@H](C(=O)N[C@@H](CC(N)=O)C(N)=O)NC(=O)[C@H](CCC(=O)O)NC(=O)[C@H](C(C)C)NC(=O)[C@H](CC2CCCCC2)NC(=O)[C@H](CCN)NC(=O)[C@@H](CC(C)C)NC(=O)[C@H](C)N(C)C1=O (stereo partly drawn) [Compound 1924] ({CH2CO}-Y(Carboxymethyl)[Phe(4-COOH)]DWL[Bip][Ile(3ξ)][NMeA][dL][Dab][Cha]VECN-NH2; thioether N-14) | – |
| 0.02 | CCNC(=O)[C@H](CCN)NC(=O)[C@@H]1CSCC(=O)N[C@@H](Cc2cccs2)C(=O)N[C@@H](Cc2cccc(C#N)c2)C(=O)N[C@@H](CC(=O)O)C(=O)N[C@@H](Cc2cccc(C)c2)C(=O)N[C@@H](Cc2cccc(F)c2)C(=O)N[C@@H](Cc2ccc(-c3ccccc3)cc2)C(=O)N[C@@H](Cc2ccc(OCC(=O)O)cc2)C(=O)N(C)[C@@H](C)C(=O)N[C@H](CC(C)C)C(=O)N[C@@H](CCN)C(=O)N[C@@H](CC2CCCCC2)C(=O)N[C@@H](C(C)(C)O)C(=O)N[C@@H](CO)C(=O)N1 [Compound 1841] ({CH2CO}-[2Thi][Phe(3-CN)]D[Phe(3-Me)][Phe(3-F)][Bip]Y(Carboxymethyl)[NMeA][dL][Dab][Cha][Val(3-OH)]SC[Dab]-NHEt; thioether N-14) | – |
